Patent US20220281819A1, “THERAPEUTIC COMPOUNDS AND METHODS OF USE” (priority 2020, published 2022)

Assays:
Assay type in all cases: binding
TEAD2 [1] = target: T1, TEAD2 (Homo sapiens, UniProt Q15562); test: Lipid HTRF (TR-FRET lipid pocket probe competition), 30 min pre-incubation, TEAD2; conditions: His-tagged TEAD2, 30 minutes pre-incubation with compound at room temperature; read-out: Lipid HTRF TEAD2 IC50
Description: (§1) His-tagged TEAD proteins are pre-incubated with TEAD project compounds for 30 minutes at room temperature. Biotinylated lipid pocket probes are then added to the TEAD/Compound mixture and incubated for 60 minutes at room temperature. The lipid pocket probe competes with the test compound for the TEAD lipid pocket until equilibrium is reached. After 60 minutes, Europium labelled anti-His (Perkin Elmer #AD0110) and XL665 labelled streptavidin (CIS Bio 610SAXAC) are added to the TEAD/test compound/lipid pocket mixture and incubated for 30 minutes. […] If a TEAD lipid pocket binder such as binds and displaces the lipid pocket probe, the disruption of the TEAD:probe interaction results in a decrease in TR-FRET signal. The potency of compounds as TEAD lipid pocket binders is determined by IC50 value generated using a non-linear 4 parameter curve fit.

TEAD1 = TEAD1 (Homo sapiens, UniProt P28347); test: Lipid HTRF (TR-FRET lipid pocket probe competition), 30 min pre-incubation, TEAD1; conditions: His-tagged TEAD1, 30 minutes pre-incubation with compound at room temperature; read-out: Lipid HTRF TEAD1 IC50
Chain of TEAD1 (P28347 whole entry, species assumed): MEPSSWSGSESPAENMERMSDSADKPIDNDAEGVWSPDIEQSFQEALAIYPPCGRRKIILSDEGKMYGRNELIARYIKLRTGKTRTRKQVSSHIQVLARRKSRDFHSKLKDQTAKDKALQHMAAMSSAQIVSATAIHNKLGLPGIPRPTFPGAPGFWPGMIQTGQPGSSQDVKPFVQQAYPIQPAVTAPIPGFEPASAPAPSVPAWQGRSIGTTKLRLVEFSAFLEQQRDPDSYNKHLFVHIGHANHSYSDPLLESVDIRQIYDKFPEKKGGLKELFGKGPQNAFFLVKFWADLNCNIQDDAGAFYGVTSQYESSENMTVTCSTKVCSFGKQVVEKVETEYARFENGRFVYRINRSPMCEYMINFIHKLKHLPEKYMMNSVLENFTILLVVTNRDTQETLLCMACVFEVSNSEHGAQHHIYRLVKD
Description: as §1

TEAD4 = TEAD4 (Homo sapiens, UniProt Q15561); test: Lipid HTRF (TR-FRET lipid pocket probe competition), 30 min pre-incubation, TEAD4; conditions: His-tagged TEAD4, 30 minutes pre-incubation with compound at room temperature; read-out: Lipid HTRF TEAD4 IC50
Chain of TEAD4 (Q15561 whole entry, species assumed): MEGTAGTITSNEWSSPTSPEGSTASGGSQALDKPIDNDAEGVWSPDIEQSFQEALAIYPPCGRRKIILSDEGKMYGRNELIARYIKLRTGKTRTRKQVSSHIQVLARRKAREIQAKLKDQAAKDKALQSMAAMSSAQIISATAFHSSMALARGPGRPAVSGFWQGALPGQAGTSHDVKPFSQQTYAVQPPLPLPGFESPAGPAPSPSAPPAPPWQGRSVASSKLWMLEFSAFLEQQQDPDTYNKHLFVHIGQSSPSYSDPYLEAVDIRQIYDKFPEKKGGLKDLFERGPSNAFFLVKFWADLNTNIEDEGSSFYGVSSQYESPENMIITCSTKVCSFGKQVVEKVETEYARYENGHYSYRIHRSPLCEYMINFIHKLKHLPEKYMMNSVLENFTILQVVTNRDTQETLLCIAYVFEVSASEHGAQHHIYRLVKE
Description: as §1

TEAD3 = TEAD3 (Homo sapiens, UniProt Q99594); test: Lipid HTRF (TR-FRET lipid pocket probe competition), 30 min pre-incubation, TEAD3; conditions: His-tagged TEAD3, 30 minutes pre-incubation with compound at room temperature; read-out: Lipid HTRF TEAD3 IC50
Chain of TEAD3 (Q99594 whole entry, species assumed): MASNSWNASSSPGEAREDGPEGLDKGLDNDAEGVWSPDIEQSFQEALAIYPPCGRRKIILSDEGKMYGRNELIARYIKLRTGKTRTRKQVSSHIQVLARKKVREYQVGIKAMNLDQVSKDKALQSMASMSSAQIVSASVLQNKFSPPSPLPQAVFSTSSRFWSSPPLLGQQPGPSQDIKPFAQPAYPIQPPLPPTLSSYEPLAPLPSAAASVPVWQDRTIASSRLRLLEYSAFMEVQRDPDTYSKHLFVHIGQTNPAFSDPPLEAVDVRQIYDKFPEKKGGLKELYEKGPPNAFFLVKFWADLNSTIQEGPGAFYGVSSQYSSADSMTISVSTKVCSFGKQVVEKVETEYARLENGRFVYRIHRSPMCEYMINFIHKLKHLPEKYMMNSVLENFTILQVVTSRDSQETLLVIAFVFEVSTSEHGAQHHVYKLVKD
Description: as §1

TEAD2 [2] = target: T1, TEAD2; test: TEAD2 Lipid + 4 hr HTRF WUXI (TR-FRET lipid pocket probe competition, 4 h pre-incubation); conditions: 4 hours pre-incubation with compound at room temperature; Table 3
Description: His-tagged TEAD2 or 4 proteins are pre-incubated with TEAD project compounds for 4 hours at room temperature. Biotinylated lipid pocket probes are then added to the TEAD/Compound mixture and incubated for 60 minutes at room temperature. The lipid pocket probe competes with the test compound for the TEAD lipid pocket until equilibrium is reached. After 60 minutes, Europium labelled anti-His (Perkin Elmer #AD0110) and XL665 labelled streptavidin (CIS Bio 610SAXAC) are added to the TEAD/test compound/lipid pocket mixture and incubated for 30 minutes. TR-FRET values are then measured using an EnVision multi-label plate reader (Perkin Elmer Cat#2104-0010A.) If the lipid pocket probe binds to TEAD as expected, a TR-FRET signal results from the proximity of anti-His Eu and XL665. If a TEAD lipid pocket binder such as binds and displaces the lipid pocket probe, the disruption of the TEAD:probe interaction results in a decrease in TR-FRET signal. The potency of compounds as TEAD lipid pocket binders is determined by IC50 value generated using a non-linear 4 parameter curve fit.

T1 sequence (Q15562 whole entry, species assumed): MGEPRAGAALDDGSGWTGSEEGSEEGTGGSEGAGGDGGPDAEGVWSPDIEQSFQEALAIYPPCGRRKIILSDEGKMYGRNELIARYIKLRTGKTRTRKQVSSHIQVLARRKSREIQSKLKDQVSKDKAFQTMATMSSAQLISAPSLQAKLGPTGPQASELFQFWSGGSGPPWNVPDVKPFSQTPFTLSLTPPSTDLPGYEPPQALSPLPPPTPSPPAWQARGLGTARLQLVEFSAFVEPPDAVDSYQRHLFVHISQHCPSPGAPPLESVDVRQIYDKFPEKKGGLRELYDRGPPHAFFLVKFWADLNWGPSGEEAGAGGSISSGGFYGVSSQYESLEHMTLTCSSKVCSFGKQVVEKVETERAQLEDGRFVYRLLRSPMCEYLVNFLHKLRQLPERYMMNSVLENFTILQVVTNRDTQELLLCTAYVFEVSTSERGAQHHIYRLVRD

| SMILES | IC50 (TEAD2 [1]) [nM] | IC50 (TEAD1) [nM] | IC50 (TEAD4) [nM] | IC50 (TEAD3) [nM] | IC50 (TEAD2 [2]) [nM] |
| --- | --- | --- | --- | --- | --- |
| CC(C)c1ccc(-c2cc(NC(=O)[C@H]3CO3)c(C#N)c3c2OCC3)cc1 [Final product from Example 45, (R)-N-(4-cyano-7-(4-isopropylphenyl)-2,3-dihydrobenzofuran-5-yl)oxirane-2-carboxamide] | 2800 | 2900 | 640 | 36000 |  |
| CC(C)c1ccc(-c2cc(NC(=O)N(C)C#N)c(C#N)c3c2OCC3)cc1 [Final product from Example 46, 1-cyano-3-(4-cyano-7-(4-isopropylphenyl)-2,3-dihydrobenzofuran-5-yl)-1-methylurea] | 180 | 170 | 70 | 1400 |  |
| CC(C)c1ccc(-c2cc(N(C)C(=O)NC#N)c(C#N)c3c2OCC3)cc1 [Final product from Example 47, 3-cyano-1-[4-cyano-7-(4-isopropylphenyl)-2,3-dihydrobenzofuran-5-yl]-1-methyl-urea] | 2700 | 2900 | 840 | 30000 |  |
| CC(F)(F)c1ccc(-c2cc(NC(=O)[C@@H]3CO3)c(C#N)c3c2OCC3)cc1 [Final product from Example 48, (S)-N-(4-cyano-7-(4-(1,1-difluoroethyl)phenyl)-2,3-dihydrobenzofuran-5-yl)oxirane-2-carboxamide] | 60 | 50 | 90 | 180 |  |
| CC(F)(F)c1ccc(-c2cc(NC(=O)[C@H]3CO3)c(C#N)c3c2OCC3)cc1 [Final product from Example 49, (R)-N-(4-cyano-7-(4-(1,1-difluoroethyl)phenyl)-2,3-dihydrobenzofuran-5-yl)oxirane-2-carboxamide] | 4100 | 2900 | 1100 | 9100 |  |
| N#Cc1c(NC(=O)[C@@H]2CO2)cc(-c2ccc(OC(F)(F)F)cc2)c2c1CCO2 [Final product from Example 50, (S)-N-(4-cyano-7-(4-(trifluoromethoxy)phenyl)-2,3-dihydrobenzofuran-5-yl)oxirane-2-carboxamide] | 40 | 30 | 50 | 110 |  |
| N#Cc1c(NC(=O)[C@H]2CO2)cc(-c2ccc(OC(F)(F)F)cc2)c2c1CCO2 [Final product from Example 51, (R)-N-(4-Cyano-7-(4-(trifluoromethoxy)phenyl)-2,3-dihydrobenzofuran-5-yl)oxirane-2-carboxamide] | 4200 | 11000 | 2200 | > 50000 |  |
| C=CC(=O)Nc1cc(-c2ccc(OC(F)(F)F)cc2)c2c(c1CO)CCO2 [Final product from Example 53, N-(4-(Hydroxymethyl)-7-(4-(trifluoromethoxy)phenyl)-2,3-dihydrobenzofuran-5-yl)acrylamide] |  |  |  |  | 3.4 |
| C=CC(=O)Nc1cc(-c2ccc(S(F)(F)(F)(F)F)cc2)c2c(c1CO)CCO2 [Final product from Example 54, N-[4-(Hydroxymethyl)-7-[4-(pentafluoro-6-sulfanyl)phenyl]-2,3-dihydrobenzofuran-5-yl]prop-2-enamide] |  |  |  |  | 8.6 |
| C=CC(=O)Nc1cc(-c2ccc(OC(F)(F)F)cc2)c2ncsc2c1C#N [Final product from Example 55, N-(7-Cyano-4-(4-(trifluoromethoxy)phenyl)benzo[d]thiazol-6-yl)acrylamide] |  |  |  |  | 18.9 |
